The values below come from US20060264460A1 (Wyeth, priority 2005, published 2006).

SMILES strings stand for the structures. pIC50: −log10 of the molar value. A value given as a limit tells only on which side of the number the result lay.

For orientation: pIC50 means the negative decadic logarithm of the IC50, by convention in mol/L. A higher pIC50 goes with a small IC50.

This assay deals with T1, human Cot/Tpl2 kinase (Homo sapiens, UniProt P41279).
T1 construct: human Cot/Tpl2 kinase construct encoding residues 30-398; 6His (N); made in house; host or cells: Sf9 insect cells, baculovirus system (BD Biosciences)
T1 sequence (P41279 30-398): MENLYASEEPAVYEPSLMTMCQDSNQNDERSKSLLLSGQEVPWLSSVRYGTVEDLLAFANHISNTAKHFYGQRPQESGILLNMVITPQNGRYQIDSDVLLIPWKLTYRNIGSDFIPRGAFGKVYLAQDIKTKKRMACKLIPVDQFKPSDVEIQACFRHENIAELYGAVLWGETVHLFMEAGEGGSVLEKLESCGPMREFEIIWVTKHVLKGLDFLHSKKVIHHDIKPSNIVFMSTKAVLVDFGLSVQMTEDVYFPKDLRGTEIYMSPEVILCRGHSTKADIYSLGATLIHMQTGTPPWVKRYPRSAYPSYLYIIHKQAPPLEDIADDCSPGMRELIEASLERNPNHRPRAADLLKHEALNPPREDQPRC
Description: Tpl2/Cot kinase assay: GST-MEK1 phosphorylation detected by ELISA (DELFIA Eu). It counts as biochemical. The note with it: 0.4 nM Tpl2, 35 nM GST-MEK1, 50 uM ATP, 1 h at 30° C. The method in brief: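 Substrate phosphorylation (GST-MEK1 Ser217/221) quantified by DELFIA europium ELISA, yielding IC50 values. Reaction: 1 h at 30° C, pH 7.2 MOPS buffer, 50 uM ATP, 35 nM GST-MEK1, 0.4 nM monomeric His-Tpl2 purified from Sf9 cells, compounds at 1% final DMSO; stopped with EDTA.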
For orientation: An ELISA detects its analyte on a solid surface through an enzyme-linked reagent.
For `CCOc1cc2ncc(C#N)c(Nc3ccc(F)c(Cl)c3)c2cc1NCc1cnc[nH]1` [Example 165, 6-((1H-imidazol-5-yl)methylamino)-4-(3-chloro-4-fluorophenylamino)-7-ethoxyquinoline-3-carbonitrile], the pIC50 was < 4.40. Then `N#Cc1cnc2cc(OCCBr)c(NCc3cnc[nH]3)cc2c1Nc1ccc(F)c(Cl)c1` [Example 166, 6-((1H-imidazol-5-yl)methylamino)-7-(2-bromoethoxy)-4-(3-chloro-4-fluorophenylamino)quinoline-3-carbonitrile], with < 4.40; and `CS(=O)(=O)c1cccc(CNc2ccc3ncc(C#N)c(Nc4ccc(F)c(Cl)c4)c3c2)c1` [Example 167, 6-(3-(methylsulfonyl)benzylamino)-4-(3-chloro-4-fluorophenylamino)quinoline-3-carbonitrile], with 7.55; and `N#Cc1cnc2ccc(NCc3cccc(S(N)(=O)=O)c3)cc2c1Nc1ccc(F)c(Cl)c1` [Example 168, 3-((4-(3-chloro-4-fluorophenylamino)-3-cyanoquinolin-6-ylamino)methyl)benzenesulfonamide], with 6.82. Then `N#Cc1cnc2ccc(NCc3cnc[nH]3)cc2c1Nc1cccc(Br)c1` [Example 169, 6-((1H-imidazol-5-yl)methylamino)-4-(3-bromophenylamino)quinoline-3-carbonitrile], with 7.68; and `N#Cc1cnc2c(Br)cc(NCc3nn[nH]c3-c3ccc(F)cc3)cc2c1Nc1ccc(F)c(Cl)c1` [Example 170, 8-bromo-4-[(3-chloro-4-fluorophenyl)amino]-6-({[5-(4-fluorophenyl)-1H-1,2,3-triazol-4-yl]methyl}amino)quinoline-3-carbonitrile], with 6.17.

In turn, `Cn1ccnc1CNc1ccc2ncc(C#N)c(Nc3ccc(F)c(Cl)c3)c2c1` [Example 171, 4-(3-chloro-4-fluorophenylamino)-6-((1-methyl-1H-imidazol-2-yl)methylamino)quinoline-3-carbonitrile] had a pIC50 of 7.85. In the case of `C[C@@H](Nc1ccc2ncc(C#N)c(Nc3ccc(F)c(Cl)c3)c2c1)c1ccccn1` [Example 172, (R)-4-(3-chloro-4-fluorophenylamino)-6-(1-(pyridin-2-yl)ethylamino)quinoline-3-carbonitrile] it was 7.08. Consider `C[C@H](Nc1ccc2ncc(C#N)c(Nc3ccc(F)c(Cl)c3)c2c1)c1ccccn1` [Example 173, (S)-4-(3-chloro-4-fluorophenylamino)-6-(1-(pyridin-2-yl)ethylamino)quinoline-3-carbonitrile], for which the pIC50 is < 4.40. Then `CCOC(=O)CNc1ccc2ncc(C#N)c(Nc3ccc(F)c(Cl)c3)c2c1` [Example 174, Ethyl 2-(4-(3-chloro-4-fluorophenylamino)-3-cyanoquinolin-6-ylamino)acetate], with 5.46; and `N#Cc1cnc2ccc(NCC(=O)O)cc2c1Nc1ccc(F)c(Cl)c1` [Example 175, 2-(4-(3-chloro-4-fluorophenylamino)-3-cyanoquinolin-6-ylamino)acetic acid], with 6.51; and `N#Cc1cnc2ccc(NCC(N)=O)cc2c1Nc1ccc(F)c(Cl)c1` [Example 176, 2-(4-(3-chloro-4-fluorophenylamino)-3-cyanoquinolin-6-ylamino)acetamide], with 5.37. In the case of `N#Cc1cnc2c(Cl)cc(NCc3cnc[nH]3)cc2c1Nc1ccc(F)c(Cl)c1` [Example 177, 6-((1H-imidazol-5-yl)methylamino)-8-chloro-4-(3-chloro-4-fluorophenylamino)quinoline-3-carbonitrile], the negative-log IC50 (pIC50) is 8.00. As for `N#Cc1cnc2c(Cl)cc(NCc3cccnc3)cc2c1Nc1ccc(F)c(Cl)c1` [Example 178, 8-chloro-4-(3-chloro-4-fluorophenylamino)-6-(pyridin-3-ylmethylamino)quinoline-3-carbonitrile], the pIC50 is 7.80. This pIC50 is 0.20 log units lower than that of the compound before.

As to `CC(Nc1ccc2ncc(C#N)c(Nc3ccc(F)c(Cl)c3)c2c1)c1cnc[nH]1` (centres unmarked) [Example 179, 6-(1-(1H-imidazol-5-yl)ethylamino)-4-(3-chloro-4-fluorophenylamino)quinoline-3-carbonitrile], the negative logarithm of the IC50 (pIC50) was 5.41.

With `CC(C)(C)S(=O)(=O)Nc1c(C#N)cnc2ccc(NCc3cnc[nH]3)cc12` [Example 180, N-(6-((1H-imidazol-5-yl)methylamino)-3-cyanoquinolin-4-yl)-2-methylpropane-2-sulfonamide], the negative-log IC50 (pIC50) is < 4.40. Compound `N#Cc1cnc2c(O)cc(NCc3cnc[nH]3)cc2c1Nc1ccc(F)c(Cl)c1` [Example 181, 6-((1H-imidazol-5-yl)methylamino)-4-(3-chloro-4-fluorophenylamino) 8-hydroxyquinoline-3-carbonitrile] gave a negative logarithm of the IC50 (pIC50) of 4.95. Then `N#Cc1cnc2c(Cl)cc(NCc3cccc[n+]3[O-])cc2c1Nc1ccc(F)c(Cl)c1` [Example 182, 8-chloro-4-[(3-chloro-4-fluorophenyl)amino]-6-{[(1-oxidopyridin-2-yl)methyl]amino}quinoline-3-carbonitrile], with 7.74; and `Cc1c(CNc2cc(Cl)c3ncc(C#N)c(Nc4ccc(F)c(Cl)c4)c3c2)ncn1C` [Example 183, 8-chloro-4-(3-chloro-4-fluorophenylamino)-6-((1,5-dimethyl-1H-imidazol-4-yl)methylamino)quinoline-3-carbonitrile], with 7.66; and `CS(=O)(=O)c1ccc(CNc2cc(Cl)c3ncc(C#N)c(Nc4ccc(F)c(Cl)c4)c3c2)cc1` [Example 184, 6-(4-(methylsulfonyl)benzylamino)-8-chloro-4-(3-chloro-4-fluorophenylamino)quinoline-3-carbonitrile], with 6.96. Then `CS(=O)(=O)c1cccc(CNc2cc(Cl)c3ncc(C#N)c(Nc4ccc(F)c(Cl)c4)c3c2)c1` [Example 185, 6-(3-(methylsulfonyl)benzylamino)-8-chloro-4-(3-chloro-4-fluorophenylamino)quinoline-3-carbonitrile], with 7.33; and `N#Cc1cnc2c(Cl)cc(NCc3ccc(S(N)(=O)=O)cc3)cc2c1Nc1ccc(F)c(Cl)c1` [Example 186, 4-((8-chloro-4-(3-chloro-4-fluorophenylamino)-3-cyanoquinolin-6-ylamino)methyl)benzenesulfonamide], with 7.35; and `N#Cc1cnc2c(Cl)cc(NCc3cn4ccccc4n3)cc2c1Nc1ccc(F)c(Cl)c1` [Example 187, 6-((H-imidazo[1,2-a]pyridin-2-yl)methylamino)-8-chloro-4-(3-chloro-4-fluorophenylamino)quinoline-3-carbonitrile], with 6.89.

Consider `N#Cc1cnc2c(Cl)cc(NCc3cc4n(n3)CCO4)cc2c1Nc1ccc(F)c(Cl)c1` [Example 188, 8-chloro-4-(3-chloro-4-fluorophenylamino)-6-((2,3-dihydropyrazolo[5,1-b]oxazol-6-yl)methylamino)quinoline-3-carbonitrile], for which the pIC50 was 7.23. In the case of `N#Cc1cnc2c(Cl)cc(NCc3cc4n(n3)CCC4)cc2c1Nc1ccc(F)c(Cl)c1` [Example 189, 8-chloro-4-(3-chloro-4-fluorophenylamino)-6-((5,6-dihydro-4H-pyrrolo[1,2-b]pyrazol-2-yl)methylamino)quinoline-3-carbonitrile] it was 7.00; in that of `CCc1nc(CNc2cc(Cl)c3ncc(C#N)c(Nc4ccc(F)c(Cl)c4)c3c2)c(C)[nH]1` [Example 190, 8-chloro-4-(3-chloro-4-fluorophenylamino)-6-((2-ethyl-5-methyl-1H-imidazol-4-yl)methylamino)quinoline-3-carbonitrile], 6.49; in that of `Cc1nc(CNc2cc(Cl)c3ncc(C#N)c(Nc4ccc(F)c(Cl)c4)c3c2)cn1CC(N)=O` [Example 191, 2-(4-((8-chloro-4-(3-chloro-4-fluorophenylamino)-3-cyanoquinolin-6-ylamino)methyl)-2-methyl-1H-imidazol-1-yl)acetamide], 7.19. `Cc1cccc(CNc2cc(Cl)c3ncc(C#N)c(Nc4ccc(F)c(Cl)c4)c3c2)n1` [Example 192, 8-chloro-4-(3-chloro-4-fluorophenylamino)-6-((6-methylpyridin-2-yl)methylamino)quinoline-3-carbonitrile] had a pIC50 of 6.77. Against the preceding compound, the pIC50 is 0.42 log units lower. Then `CCc1nc(CNc2cc(Cl)c3ncc(C#N)c(Nc4ccc(F)c(Cl)c4)c3c2)cn1CC(N)=O` [Example 193, 2-(4-((8-chloro-4-(3-chloro-4-fluorophenylamino)-3-cyanoquinolin-6-ylamino)methyl)-2-ethyl-1H-imidazol-1-yl)acetamide], with 6.39; and `CCc1nc(CNc2cc(Cl)c3ncc(C#N)c(Nc4ccc(F)c(Cl)c4)c3c2)c(C)n1C(=O)OC(C)(C)C` [Example 194, tert-butyl 4-((8-chloro-4-(3-chloro-4-fluorophenylamino)-3-cyanoquinolin-6-ylamino)methyl)-2-ethyl-5-methyl-1H-imidazole-1-carboxylate], with 5.01; and `Cc1cccc(CNc2cc(Cl)c3ncc(C#N)c(Nc4ccc(F)c(Cl)c4)c3c2)[n+]1[O-]` [Example 195, 8-chloro-4-[(3-chloro-4-fluorophenyl)amino]-6-{[(6-methyl-1-oxidopyridin-2-yl)methyl]amino}quinoline-3-carbonitrile], with 7.49. `Cc1ccc[n+]([O-])c1CNc1cc(Cl)c2ncc(C#N)c(Nc3ccc(F)c(Cl)c3)c2c1` [Example 196, 8-chloro-4-[(3-chloro-4-fluorophenyl)amino]-6-{[(3-methyl-1-oxidopyridin-2-yl)methyl]amino}quinoline-3-carbonitrile] had a negative-log IC50 (pIC50) of 7.18.
